These results are taken from patent publication US9714234B2, “Carbazole carboxamide compounds” (Bristol-Myers Squibb Company, priority 2013, dated 2017).

The subject of assay [1] is CD69 expression on B cells in human whole blood. Description: Whole Blood Assays of BCR-Stimulated CD69 Expression on B Cells. The class given is cell-based. The settings on record: anti-human IgM + IL-4 stimulation, 18 h at 37° C.
The next assay has as its target Jak2 tyrosine kinase (Homo sapiens (Human), UniProt O60674). Put plainly: Jak2 Tyrosine Kinase Assay. The class given is biochemical. Conditions: for IC50: Jak2 1 nM, ATP 30 μM; for Ratio of Jak2/Btk IC50 values: selectivity for Btk over Jak2, larger value = more selective for Btk.
For a further assay, the target named is human recombinant Btk (Homo sapiens (Human), UniProt Q06187). Put plainly: Human Recombinant Btk Enzyme Assay. The class given is biochemical. Conditions: human recombinant Btk 1 nM, ATP 20 μM.
Sequence of human recombinant Btk (Q06187 whole entry): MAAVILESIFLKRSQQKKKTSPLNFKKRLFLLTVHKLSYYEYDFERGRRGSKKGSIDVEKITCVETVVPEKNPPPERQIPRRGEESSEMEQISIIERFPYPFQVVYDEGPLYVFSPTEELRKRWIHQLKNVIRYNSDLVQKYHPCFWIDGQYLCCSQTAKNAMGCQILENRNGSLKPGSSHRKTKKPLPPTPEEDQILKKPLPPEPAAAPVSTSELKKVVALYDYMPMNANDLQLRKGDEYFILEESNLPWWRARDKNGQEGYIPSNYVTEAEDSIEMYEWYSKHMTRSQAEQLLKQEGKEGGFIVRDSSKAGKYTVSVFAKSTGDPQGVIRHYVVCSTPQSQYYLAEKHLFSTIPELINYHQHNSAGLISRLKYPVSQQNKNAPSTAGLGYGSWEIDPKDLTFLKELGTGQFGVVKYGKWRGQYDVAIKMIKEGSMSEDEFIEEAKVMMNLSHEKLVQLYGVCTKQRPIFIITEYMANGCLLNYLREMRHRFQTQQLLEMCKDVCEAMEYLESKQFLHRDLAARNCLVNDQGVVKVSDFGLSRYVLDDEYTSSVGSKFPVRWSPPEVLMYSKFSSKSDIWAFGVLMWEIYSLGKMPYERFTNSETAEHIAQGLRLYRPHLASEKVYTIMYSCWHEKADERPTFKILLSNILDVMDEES

Sequence of Jak2 tyrosine kinase (O60674 whole entry): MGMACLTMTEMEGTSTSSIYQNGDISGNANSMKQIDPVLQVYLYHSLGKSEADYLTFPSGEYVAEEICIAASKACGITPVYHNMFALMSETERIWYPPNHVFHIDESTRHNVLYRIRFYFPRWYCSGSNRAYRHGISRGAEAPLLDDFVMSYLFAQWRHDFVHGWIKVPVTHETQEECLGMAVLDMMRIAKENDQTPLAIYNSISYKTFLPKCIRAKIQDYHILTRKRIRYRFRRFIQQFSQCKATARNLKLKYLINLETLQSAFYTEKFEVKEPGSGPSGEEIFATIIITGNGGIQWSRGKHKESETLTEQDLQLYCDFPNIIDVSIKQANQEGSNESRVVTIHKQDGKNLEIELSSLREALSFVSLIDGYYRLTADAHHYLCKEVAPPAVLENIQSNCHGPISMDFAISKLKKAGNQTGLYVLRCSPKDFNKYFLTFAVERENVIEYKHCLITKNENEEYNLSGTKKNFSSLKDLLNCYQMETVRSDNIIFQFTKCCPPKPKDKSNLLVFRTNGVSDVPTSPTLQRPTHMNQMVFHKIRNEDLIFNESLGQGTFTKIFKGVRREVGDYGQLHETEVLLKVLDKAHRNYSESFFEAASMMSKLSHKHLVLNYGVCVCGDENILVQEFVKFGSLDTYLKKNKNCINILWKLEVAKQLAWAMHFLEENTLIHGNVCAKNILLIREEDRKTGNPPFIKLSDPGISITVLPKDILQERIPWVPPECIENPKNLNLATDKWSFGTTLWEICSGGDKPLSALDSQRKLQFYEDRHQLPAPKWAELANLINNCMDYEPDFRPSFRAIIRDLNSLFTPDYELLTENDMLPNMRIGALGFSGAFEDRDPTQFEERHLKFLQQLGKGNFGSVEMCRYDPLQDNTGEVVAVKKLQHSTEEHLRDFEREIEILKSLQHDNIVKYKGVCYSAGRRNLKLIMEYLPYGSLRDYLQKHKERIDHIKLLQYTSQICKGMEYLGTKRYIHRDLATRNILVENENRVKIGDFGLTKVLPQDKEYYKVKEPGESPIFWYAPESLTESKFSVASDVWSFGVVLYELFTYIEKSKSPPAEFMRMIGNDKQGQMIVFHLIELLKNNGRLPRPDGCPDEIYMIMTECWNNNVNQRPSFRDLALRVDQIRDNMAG

The IC50 is the concentration needed to halve the response being measured. In the case of “4-(3-(S)-(8-Fluoro-1-methyl-2,4-dioxo-1,2-dihydroquinazolin-3(4H)-yl)-2-methylphenyl)-7-(2-hydroxypropan-2-yl)-5-methyl-9H-carbazole-1-carboxamide [Example 24]”, the IC50 in assay [1] is 0.16 µM; against Jak2 tyrosine kinase it was over 2 µM; on human recombinant Btk, 0.00059 µM. Moreover, the “Ratio of Jak2/Btk IC50 values” at Jak2 tyrosine kinase was over 3400.

As to `Cc1c(-c2ccc(C(N)=O)c3[nH]c4cc(C(C)(C)O)ccc4c23)cccc1-n1c(=O)c2cccc(F)c2n(C)c1=O` (atropisomer, axis not shown) [Example 3, 4-(3-(S)-(8-Fluoro-1-methyl-2,4-dioxo-1,2-dihydroquinazolin-3(4H)-yl)-2-methylphenyl)-7-(2-hydroxypropan-2-yl)-9H-carbazole-1-carboxamide], the IC50 was found to be 0.19 µM in assay [1] and 1.2 µM against Jak2 tyrosine kinase.

On to `[2H]C([2H])([2H])n1c(=O)n(-c2cccc(-c3ccc(C(N)=O)c4[nH]c5cc(C(C)(C)O)ccc5c34)c2C)c(=O)c2cccc(F)c21` (atropisomer, axis not shown) [Example 4, 4-(3-(S)-(8-Fluoro-1-methyl(d3)-2,4-dioxo-1,2-dihydroquinazolin-3(4H)-yl)-2-methylphenyl)-7-(2-hydroxypropan-2-yl)-9H-carbazole-1-carboxamide], for which the values for the IC50 (in assay [1]; against Jak2 tyrosine kinase) were 0.19 µM and 2 µM, respectively.

As for `Cc1c(-c2ccc(C(N)=O)c3[nH]c4cc(C(C)(C)O)ccc4c23)cccc1-n1c(=O)cc2c(Cl)cccn2c1=O` (atropisomer, axis not shown) [Example 15, 4-(3-(S)-(5-Chloro-1,3-dioxo-1H-pyrido[1,2-c]pyrimidin-2(3H)-yl)-2-methylphenyl)-7-(2-hydroxypropan-2-yl)-9H-carbazole-1-carboxamide], the IC50 in assay [1] turned out to be 0.059 µM; against Jak2 tyrosine kinase it was 1 µM; on human recombinant Btk it was 0.00041 µM. For the same compound, the “Ratio of Jak2/Btk IC50 values” on Jak2 tyrosine kinase was 2400.

Consider `Cc1c(-c2ccc(C(N)=O)c3[nH]c4c(C)c(C(C)(C)O)ccc4c23)cccc1-n1c(=O)c2cccc(F)c2n(C)c1=O` (atropisomer, axis not shown) [Example 26, 4-(3-(S)-(8-Fluoro-1-methyl-2,4-dioxo-1,2-dihydroquinazolin-3(4H)-yl)-2-methylphenyl)-7-(2-hydroxypropan-2-yl)-8-methyl-9H-carbazole-1-carboxamide], for which the IC50 in assay [1] (B-cell) is 0.2 µM; at Jak2 tyrosine kinase, over 2 µM; at human recombinant Btk, 0.00084 µM. Also, at Jak2 tyrosine kinase, the “Ratio of Jak2/Btk IC50 values” is over 2400.

On to `[2H]C([2H])([2H])n1c(=O)n(-c2cccc(-c3ccc(C(N)=O)c4[nH]c5cc(C(C)(C)O)cc(C)c5c34)c2C)c(=O)c2cccc(F)c21` (atropisomer, axis not shown) [Example 27, 4-(3-(S)-(8-Fluoro-1-methyl(d3)-2,4-dioxo-1,2-dihydroquinazolin-3(4H)-yl)-2-methylphenyl)-7-(2-hydroxypropan-2-yl)-5-methyl-9H-carbazole-1-carboxamide], for which the IC50 is 0.098 µM in assay [1] (B-cell), over 2 µM on Jak2 tyrosine kinase and 0.0012 µM on human recombinant Btk. At Jak2 tyrosine kinase, the “Ratio of Jak2/Btk IC50 values” is given as over 1700.

In the case of `Cc1c(-c2ccc(C(N)=O)c3[nH]c4cc(C(C)(C)O)ccc4c23)cccc1-n1c(=O)[nH]c2c(F)cccc2c1=O` (single isomer, unassigned) [Example 1, 4-(3-(8-Fluoro-2,4-dioxo-1,2-dihydroquinazolin-3(4H)-yl)-2-methylphenyl)-7-(2-hydroxypropan-2-yl)-9H-carbazole-1-carboxamide], the IC50 in assay [1] (Homo sapiens, B-cell, 18 h) is 0.14 µM; against Jak2 tyrosine kinase, 1.2 µM; on human recombinant Btk, 0.0015 µM. Also, the “Ratio of Jak2/Btk IC50 values” at Jak2 tyrosine kinase turned out to be 800.

Regarding `Cc1c(-c2ccc(C(N)=O)c3[nH]c4cc(C(C)(C)O)ccc4c23)cccc1-n1c(=O)[nH]c2c(F)cccc2c1=O` (single isomer, unassigned) [Example 2, 4-(3-(8-Fluoro-2,4-dioxo-1,2-dihydroquinazolin-3(4H)-yl)-2-methylphenyl)-7-(2-hydroxypropan-2-yl)-9H-carbazole-1-carboxamide], the values for the IC50 (in assay [1]; against Jak2 tyrosine kinase; at human recombinant Btk) were 0.2 µM, 0.85 µM and 0.0024 µM, respectively. At Jak2 tyrosine kinase, the “Ratio of Jak2/Btk IC50 values” is 350.

On to `Cc1c(-c2ccc(C(N)=O)c3[nH]c4cc(C(C)(C)O)cc(C)c4c23)cccc1-n1c(=O)c2cccc(F)c2n(C)c1=O` (single isomer, unassigned) [Example 25], for which the IC50 in assay [1] (B-cell) stood at 0.069 µM; against Jak2 tyrosine kinase, 4.6 µM; at human recombinant Btk, 0.0007 µM. The “Ratio of Jak2/Btk IC50 values” at Jak2 tyrosine kinase turned out to be 6600.

Consider `Cn1c(=O)n(-c2cccc(-c3ccc(C(N)=O)c4[nH]c5cc(C(C)(C)O)ccc5c34)c2Cl)c(=O)c2cccc(F)c21` [Example 5, 4-(2-Chloro-3-(8-fluoro-1-methyl-2,4-dioxo-1,2-dihydroquinazolin-3(4H)-yl)phenyl)-7-(2-hydroxypropan-2-yl)-9H-carbazole-1-carboxamide], for which the IC50 in assay [1] (B-cell) was 0.18 µM; on Jak2 tyrosine kinase, 1.2 µM; at human recombinant Btk, 0.0009 µM. Moreover, the “Ratio of Jak2/Btk IC50 values” at Jak2 tyrosine kinase is 1300.

On to `Cn1c(=O)n(-c2cccc(-c3ccc(C(N)=O)c4[nH]c5cc(C(C)(C)O)ccc5c34)c2Cl)c(=O)c2ccccc21` [Example 6, 4-(2-Chloro-3-(1-methyl-2,4-dioxo-1,2-dihydroquinazolin-3(4H)-yl)phenyl)-7-(2-hydroxypropan-2-yl)-9H-carbazole-1-carboxamide], for which the values for the IC50 (in assay [1] (B-cell); against Jak2 tyrosine kinase; on human recombinant Btk) were 0.15 µM, 1.8 µM and 0.0053 µM, respectively. For the same compound, the “Ratio of Jak2/Btk IC50 values” on Jak2 tyrosine kinase was 340.

For the compound `COc1cccc2c(=O)n(-c3cccc(-c4ccc(C(N)=O)c5[nH]c6cc(C(C)(C)O)ccc6c45)c3C)c(=O)n(C)c12` [Example 7, 7-(2-Hydroxypropan-2-yl)-4-(3-(8-methoxy-1-methyl-2,4-dioxo-1,2-dihydroquinazolin-3(4H)-yl)-2-methylphenyl)-9H-carbazole-1-carboxamide], the IC50 in assay [1] (B-cell) turned out to be 0.22 µM; at Jak2 tyrosine kinase, 1.3 µM; on human recombinant Btk, 0.0017 µM. Also, the “Ratio of Jak2/Btk IC50 values” at Jak2 tyrosine kinase amounted to 760.

As for `Cc1c(-c2ccc(C(N)=O)c3[nH]c4cc(C(C)(C)O)ccc4c23)cccc1-n1c(=O)c2cc(F)ccc2n(C)c1=O` [Example 8, 4-(3-(6-Fluoro-1-methyl-2,4-dioxo-1,2-dihydroquinazolin-3(4H)-yl)-2-methylphenyl)-7-(2-hydroxypropan-2-yl)-9H-carbazole-1-carboxamide], the IC50 in assay [1] (B-cell) stood at 0.16 µM; on Jak2 tyrosine kinase, 2.2 µM; on human recombinant Btk, 0.0058 µM. Moreover, the “Ratio of Jak2/Btk IC50 values” at Jak2 tyrosine kinase worked out at 380.

As to `Cc1c(-c2ccc(C(N)=O)c3[nH]c4cc(C(C)(C)O)ccc4c23)cccc1-n1c(=O)ccn(-c2ccc(F)cc2)c1=O` [Example 9, 4-(3-(3-(4-Fluorophenyl)-2,6-dioxo-2,3-dihydropyrimidin-1(6H)-yl)-2-methylphenyl)-7-(2-hydroxypropan-2-yl)-9H-carbazole-1-carboxamide], the IC50 in assay [1] (B-cell) was determined as 0.21 µM; at Jak2 tyrosine kinase, 1 µM; on human recombinant Btk, 0.0022 µM. For the same compound, on Jak2 tyrosine kinase, the “Ratio of Jak2/Btk IC50 values” was found to be 450.

Regarding `COc1ccc2cc(=O)n(-c3cccc(-c4ccc(C(N)=O)c5[nH]c6cc(C(C)(C)O)ccc6c45)c3C)c(=O)n2c1` [Example 10, 7-(2-Hydroxypropan-2-yl)-4-(3-(7-methoxy-1,3-dioxo-1H-pyrido[1,2-c]pyrimidin-2(3H)-yl)-2-methylphenyl)-9H-carbazole-1-carboxamide], the IC50 in assay [1] (B-cell) came out at 0.12 µM; on Jak2 tyrosine kinase it was 1.1 µM; at human recombinant Btk, 0.0014 µM. On Jak2 tyrosine kinase, the “Ratio of Jak2/Btk IC50 values” was determined as 790.

For the compound `COc1ccn2c(=O)n(-c3cccc(-c4ccc(C(N)=O)c5[nH]c6cc(C(C)(C)O)ccc6c45)c3C)c(=O)cc2c1` [Example 11, 7-(2-Hydroxypropan-2-yl)-4-(3-(6-methoxy-1,3-dioxo-1H-pyrido[1,2-c]pyrimidin-2(3H)-yl)-2-methylphenyl)-9H-carbazole-1-carboxamide], the figures for the IC50 (in assay [1] (B-cell); on Jak2 tyrosine kinase; on human recombinant Btk) were 0.14 µM, 1 µM and 0.00063 µM, respectively. In addition, on Jak2 tyrosine kinase, the “Ratio of Jak2/Btk IC50 values” stood at 1600.

Regarding `Cc1c(-c2ccc(C(N)=O)c3[nH]c4cc(C(C)(C)O)ccc4c23)cccc1-n1c(=O)cc2c(Cl)cccn2c1=O` [Example 14, 4-(3-(R)-(5-Chloro-1,3-dioxo-1H-pyrido[1,2-c]pyrimidin-2(3H)-yl)-2-methylphenyl)-7-(2-hydroxypropan-2-yl)-9H-carbazole-1-carboxamide], in assay [1], the half-inhibitory concentration (IC50) stood at 0.078 µM.

Consider `Cc1c(-c2ccc(C(N)=O)c3[nH]c4cc(N(C)C)ccc4c23)cccc1-n1c(=O)cc2c(F)cccn2c1=O` [Example 29, 7-(dimethylamino)-4-(3-(5-fluoro-1,3-dioxo-1H-pyrido[1,2-c]pyrimidin-2(3H)-yl)-2-methylphenyl)-9H-carbazole-1-carboxamide], for which the IC50 in assay [1] (B-cell) stood at 0.056 µM.

Turning to `Cc1c(-c2ccc(C(N)=O)c3[nH]c4cc(CN5CCCC5)ccc4c23)cccc1-n1c(=O)cc2c(Cl)cccn2c1=O` [Example 31, 4-(3-(5-chloro-1,3-dioxo-1H-pyrido[1,2-c]pyrimidin-2(3H)-yl)-2-methylphenyl)-7-(pyrrolidin-1-ylmethyl)-9H-carbazole-1-carboxamide], the IC50 in assay [1] (B-cell) was found to be 0.06 µM.

With `Cc1nc(C(N)=O)c2[nH]c3cc(C(C)(C)O)ccc3c2c1-c1cccc(-n2cnc3ccccc3c2=O)c1C` [compound 35, 7-(2-Hydroxypropan-2-yl)-3-methyl-4-(2-methyl-3-(4-oxoquinazolin-3(4H)-yl)phenyl)-9H-pyrido[3,4-b]indole-1-carboxamide, reference compound], the “Ratio of Jak2/Btk IC50 values” at Jak2 tyrosine kinase stood at 29.
